The record followed here is publication PMC9611727, “Optimization of a Novel Mandelamide-Derived Pyrrolopyrimidine Series of PERK Inhibitors” (Pharmaceutics, 2022).

Test in all cases: scanMAX kinase panel
Format in all cases: binding

One test relates to FLT3(ITD,F691L). An excerpt:
(§1) Supplemental Table S2. scanMAXSM Kinome Assay Results. Complete tabulated data of all 468 kinases from the panel, including
(§2) 403 wild-type and 65 mutant isoforms. […] Cmpd 11 and Cmpd 24

In another test the test system is FLT3(ITD).
Text: as §1, §2

In a further test the target is T1, RIPK2 (Homo sapiens, UniProt O43353).
T1 construct: purchased DiscoverX (scanMAX panel)
The conditions noted are these: read-out: % Control; for remaining binding at 1 µM: 1000 nM.
Text: as §1, §2

In the next test the target is T2, LTK (Homo sapiens, UniProt P29376).
T2 construct: purchased DiscoverX scanMAX
To be noted: read-out: % Control; for remaining binding at 1 µM: 1000 nM.
Text: as §1, §2

The target in a further test is T3, YSK4 (Homo sapiens, UniProt Q56UN5).
T3 construct: purchased DiscoverX (scanMAX panel)
T3 sequence (Q56UN5 1-1328): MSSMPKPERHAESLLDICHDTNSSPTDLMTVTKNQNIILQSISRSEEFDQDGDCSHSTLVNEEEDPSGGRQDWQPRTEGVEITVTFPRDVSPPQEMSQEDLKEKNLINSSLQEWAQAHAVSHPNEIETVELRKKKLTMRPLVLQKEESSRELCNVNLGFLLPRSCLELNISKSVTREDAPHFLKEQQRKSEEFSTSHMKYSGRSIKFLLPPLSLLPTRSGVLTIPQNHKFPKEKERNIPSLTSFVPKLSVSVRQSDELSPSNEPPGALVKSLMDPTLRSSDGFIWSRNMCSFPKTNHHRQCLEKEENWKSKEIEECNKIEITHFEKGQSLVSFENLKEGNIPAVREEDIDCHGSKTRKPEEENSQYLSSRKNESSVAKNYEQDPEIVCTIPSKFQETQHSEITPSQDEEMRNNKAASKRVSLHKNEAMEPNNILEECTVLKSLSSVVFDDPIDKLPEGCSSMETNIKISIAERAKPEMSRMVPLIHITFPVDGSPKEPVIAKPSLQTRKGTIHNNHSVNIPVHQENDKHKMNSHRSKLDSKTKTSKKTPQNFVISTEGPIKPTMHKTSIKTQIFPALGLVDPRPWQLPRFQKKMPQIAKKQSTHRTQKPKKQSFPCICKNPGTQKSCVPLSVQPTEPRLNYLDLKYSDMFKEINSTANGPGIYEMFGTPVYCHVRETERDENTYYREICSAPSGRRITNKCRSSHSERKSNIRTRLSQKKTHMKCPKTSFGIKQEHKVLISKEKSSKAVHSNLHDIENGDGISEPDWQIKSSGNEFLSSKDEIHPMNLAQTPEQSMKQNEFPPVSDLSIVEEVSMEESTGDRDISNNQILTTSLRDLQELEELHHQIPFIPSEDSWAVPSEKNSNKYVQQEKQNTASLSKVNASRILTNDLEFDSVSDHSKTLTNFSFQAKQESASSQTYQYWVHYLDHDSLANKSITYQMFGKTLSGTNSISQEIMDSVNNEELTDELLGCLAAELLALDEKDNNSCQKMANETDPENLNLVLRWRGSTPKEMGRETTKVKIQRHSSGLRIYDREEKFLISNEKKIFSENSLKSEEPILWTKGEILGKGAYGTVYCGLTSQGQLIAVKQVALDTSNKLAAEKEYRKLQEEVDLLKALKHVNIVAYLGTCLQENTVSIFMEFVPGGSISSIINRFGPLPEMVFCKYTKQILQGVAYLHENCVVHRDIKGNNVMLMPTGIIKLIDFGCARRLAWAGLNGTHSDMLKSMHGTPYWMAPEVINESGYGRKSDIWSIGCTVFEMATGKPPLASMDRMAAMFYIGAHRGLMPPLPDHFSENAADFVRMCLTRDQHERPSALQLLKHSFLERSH
The conditions noted are these: read-out: % Control; for remaining binding at 1 µM: 1000 nM.
Text: as §1, §2

The next test deals with T4, TRKB (Homo sapiens, UniProt Q16620).
T4 construct: purchased DiscoverX (scanMAX panel)
The conditions noted are these: read-out: % Control; for remaining binding at 1 µM: 1000 nM.
Text: as §1, §2

For the next test, the target named is T5, PRKR (Homo sapiens, UniProt P19525).
T5 construct: purchased DiscoverX scanMAX
The conditions noted are these: read-out: % Control; for remaining binding at 1 µM: 1000 nM.
Text: as §1, §2

Another test deals with T6, FLT3(D835Y) (Homo sapiens, UniProt P36888, D835Y).
T6 construct: purchased DiscoverX scanMAX
T6 sequence (P36888 27-993 D835Y): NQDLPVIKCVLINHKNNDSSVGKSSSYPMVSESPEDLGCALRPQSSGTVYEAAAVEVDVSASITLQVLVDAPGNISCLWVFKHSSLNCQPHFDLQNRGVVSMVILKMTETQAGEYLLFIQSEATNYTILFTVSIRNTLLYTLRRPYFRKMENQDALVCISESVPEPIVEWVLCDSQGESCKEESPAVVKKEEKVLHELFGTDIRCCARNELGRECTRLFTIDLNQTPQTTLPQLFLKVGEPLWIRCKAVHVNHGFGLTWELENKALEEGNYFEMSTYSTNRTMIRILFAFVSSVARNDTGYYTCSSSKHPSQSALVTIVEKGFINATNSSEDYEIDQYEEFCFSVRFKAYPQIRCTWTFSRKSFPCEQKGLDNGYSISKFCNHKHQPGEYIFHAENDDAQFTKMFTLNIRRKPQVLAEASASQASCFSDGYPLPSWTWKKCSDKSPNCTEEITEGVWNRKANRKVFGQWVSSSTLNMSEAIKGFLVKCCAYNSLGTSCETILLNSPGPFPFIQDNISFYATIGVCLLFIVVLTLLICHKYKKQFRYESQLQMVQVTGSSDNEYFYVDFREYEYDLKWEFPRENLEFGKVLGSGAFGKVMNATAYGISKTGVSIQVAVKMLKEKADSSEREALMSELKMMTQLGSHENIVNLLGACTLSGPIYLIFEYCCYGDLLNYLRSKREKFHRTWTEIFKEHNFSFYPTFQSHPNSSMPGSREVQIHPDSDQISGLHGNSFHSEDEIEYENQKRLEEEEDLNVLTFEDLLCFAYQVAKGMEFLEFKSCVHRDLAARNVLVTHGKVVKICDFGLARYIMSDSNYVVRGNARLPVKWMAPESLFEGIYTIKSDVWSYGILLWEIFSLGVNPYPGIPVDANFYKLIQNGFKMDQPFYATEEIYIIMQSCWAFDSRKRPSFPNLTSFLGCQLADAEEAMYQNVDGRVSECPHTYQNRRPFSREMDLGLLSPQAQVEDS
The conditions noted are these: read-out: % Control; for remaining binding at 1 µM: 1000 nM.
Text: as §1, §2

Another test deals with T7, TRKA (Homo sapiens, UniProt P04629).
T7 construct: purchased DiscoverX (scanMAX panel)
The conditions noted are these: read-out: % Control; for remaining binding at 1 µM: 1000 nM.
Text: as §1, §2

T1 sequence (O43353 whole entry): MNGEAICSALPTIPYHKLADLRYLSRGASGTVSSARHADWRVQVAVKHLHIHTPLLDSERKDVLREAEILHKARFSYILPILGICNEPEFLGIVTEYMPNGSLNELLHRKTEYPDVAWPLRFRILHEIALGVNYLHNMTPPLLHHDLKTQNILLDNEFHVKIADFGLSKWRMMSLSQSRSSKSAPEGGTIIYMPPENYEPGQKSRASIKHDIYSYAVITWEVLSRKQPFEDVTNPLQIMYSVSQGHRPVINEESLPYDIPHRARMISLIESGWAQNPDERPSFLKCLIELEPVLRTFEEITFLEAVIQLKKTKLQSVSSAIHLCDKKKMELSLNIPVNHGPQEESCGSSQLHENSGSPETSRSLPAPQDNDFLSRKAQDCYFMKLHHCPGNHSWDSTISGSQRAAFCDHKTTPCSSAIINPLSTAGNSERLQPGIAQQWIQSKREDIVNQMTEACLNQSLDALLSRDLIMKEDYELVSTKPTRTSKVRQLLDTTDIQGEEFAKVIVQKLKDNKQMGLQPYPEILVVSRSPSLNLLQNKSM
T5 sequence (P19525 whole entry): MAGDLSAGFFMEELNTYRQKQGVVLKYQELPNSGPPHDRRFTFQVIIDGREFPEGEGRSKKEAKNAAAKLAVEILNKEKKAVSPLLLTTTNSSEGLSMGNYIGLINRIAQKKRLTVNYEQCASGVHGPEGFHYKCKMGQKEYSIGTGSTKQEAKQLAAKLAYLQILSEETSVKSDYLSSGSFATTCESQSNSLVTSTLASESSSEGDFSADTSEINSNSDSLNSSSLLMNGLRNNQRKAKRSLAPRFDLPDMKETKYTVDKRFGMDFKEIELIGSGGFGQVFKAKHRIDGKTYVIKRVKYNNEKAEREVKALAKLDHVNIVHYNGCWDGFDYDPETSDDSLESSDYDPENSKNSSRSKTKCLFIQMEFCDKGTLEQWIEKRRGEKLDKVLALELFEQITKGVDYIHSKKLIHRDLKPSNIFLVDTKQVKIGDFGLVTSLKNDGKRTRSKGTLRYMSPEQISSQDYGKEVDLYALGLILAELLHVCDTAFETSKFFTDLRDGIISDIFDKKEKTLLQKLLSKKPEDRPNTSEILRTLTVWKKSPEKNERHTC
T2 sequence (P29376 17-864): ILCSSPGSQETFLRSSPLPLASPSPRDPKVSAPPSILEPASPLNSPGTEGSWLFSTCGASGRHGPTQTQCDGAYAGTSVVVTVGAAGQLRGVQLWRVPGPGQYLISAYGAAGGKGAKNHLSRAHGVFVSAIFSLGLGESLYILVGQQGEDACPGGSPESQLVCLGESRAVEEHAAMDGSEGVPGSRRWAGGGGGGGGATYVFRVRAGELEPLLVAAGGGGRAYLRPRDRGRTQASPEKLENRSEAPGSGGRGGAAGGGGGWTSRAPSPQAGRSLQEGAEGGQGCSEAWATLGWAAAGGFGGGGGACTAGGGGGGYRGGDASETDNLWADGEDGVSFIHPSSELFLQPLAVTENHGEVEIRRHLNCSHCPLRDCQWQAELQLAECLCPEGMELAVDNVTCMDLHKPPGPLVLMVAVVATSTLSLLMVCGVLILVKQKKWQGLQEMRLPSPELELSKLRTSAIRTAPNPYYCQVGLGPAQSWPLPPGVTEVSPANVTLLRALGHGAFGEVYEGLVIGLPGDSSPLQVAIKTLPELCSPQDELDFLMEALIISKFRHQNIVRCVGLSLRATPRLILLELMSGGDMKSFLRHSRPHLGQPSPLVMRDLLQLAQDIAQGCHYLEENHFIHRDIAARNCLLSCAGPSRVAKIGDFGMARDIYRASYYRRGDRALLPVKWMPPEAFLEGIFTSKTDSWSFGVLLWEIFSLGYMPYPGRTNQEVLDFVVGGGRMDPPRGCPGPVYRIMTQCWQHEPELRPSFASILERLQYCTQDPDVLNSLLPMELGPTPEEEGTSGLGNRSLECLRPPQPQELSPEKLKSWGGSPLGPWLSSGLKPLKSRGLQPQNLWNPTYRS
T4 sequence (Q16620 32-822): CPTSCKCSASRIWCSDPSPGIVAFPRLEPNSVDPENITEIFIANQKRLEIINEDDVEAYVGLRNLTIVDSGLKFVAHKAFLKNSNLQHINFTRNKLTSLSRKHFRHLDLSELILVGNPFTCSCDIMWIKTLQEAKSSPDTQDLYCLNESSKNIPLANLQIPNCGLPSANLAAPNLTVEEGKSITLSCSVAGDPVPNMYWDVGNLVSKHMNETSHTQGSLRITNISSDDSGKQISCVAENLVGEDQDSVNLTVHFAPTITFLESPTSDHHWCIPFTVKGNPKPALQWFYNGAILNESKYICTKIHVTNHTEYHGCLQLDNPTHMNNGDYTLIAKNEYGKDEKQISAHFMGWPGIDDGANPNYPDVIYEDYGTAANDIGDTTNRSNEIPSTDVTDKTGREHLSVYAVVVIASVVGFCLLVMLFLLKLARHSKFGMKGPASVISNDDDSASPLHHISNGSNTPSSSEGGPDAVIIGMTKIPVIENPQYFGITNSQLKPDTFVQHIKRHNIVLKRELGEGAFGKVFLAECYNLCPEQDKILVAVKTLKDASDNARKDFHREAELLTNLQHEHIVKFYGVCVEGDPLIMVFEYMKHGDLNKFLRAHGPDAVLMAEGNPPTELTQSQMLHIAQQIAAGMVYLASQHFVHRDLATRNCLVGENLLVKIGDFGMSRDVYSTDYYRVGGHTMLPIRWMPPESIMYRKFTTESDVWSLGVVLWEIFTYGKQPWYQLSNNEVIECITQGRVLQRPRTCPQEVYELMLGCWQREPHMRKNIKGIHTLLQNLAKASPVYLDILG
T7 sequence (P04629 33-796): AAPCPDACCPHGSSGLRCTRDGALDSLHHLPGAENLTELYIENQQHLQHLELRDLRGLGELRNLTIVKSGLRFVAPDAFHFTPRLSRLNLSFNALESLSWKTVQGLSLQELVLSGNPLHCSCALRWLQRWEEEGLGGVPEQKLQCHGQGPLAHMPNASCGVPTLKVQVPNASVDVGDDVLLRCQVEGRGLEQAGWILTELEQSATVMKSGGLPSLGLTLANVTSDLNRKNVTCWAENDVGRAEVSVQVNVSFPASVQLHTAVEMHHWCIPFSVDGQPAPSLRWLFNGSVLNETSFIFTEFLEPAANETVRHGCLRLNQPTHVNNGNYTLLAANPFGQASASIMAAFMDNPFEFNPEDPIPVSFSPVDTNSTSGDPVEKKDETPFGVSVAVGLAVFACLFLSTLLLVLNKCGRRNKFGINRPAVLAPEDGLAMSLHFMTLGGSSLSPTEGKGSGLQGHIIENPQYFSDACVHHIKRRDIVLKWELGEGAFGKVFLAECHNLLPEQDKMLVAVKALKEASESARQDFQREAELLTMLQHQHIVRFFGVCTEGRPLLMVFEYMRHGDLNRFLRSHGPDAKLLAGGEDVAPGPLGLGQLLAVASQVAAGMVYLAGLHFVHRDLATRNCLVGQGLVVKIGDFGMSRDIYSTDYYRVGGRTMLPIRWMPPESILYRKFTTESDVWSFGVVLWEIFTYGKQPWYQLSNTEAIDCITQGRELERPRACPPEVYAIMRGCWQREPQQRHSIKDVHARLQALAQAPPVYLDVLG

Turning to `Cc1cc(NC(=O)[C@H](O)c2cccc(F)c2)ccc1-c1cn(C)c2ncnc(N)c12` [Compound 11, (R)-N-(4-(4-amino-7-methyl-7H-pyrrolo[2,3-d]pyrimidin-5-yl)-3-methylphenyl)-2-(3-fluorophenyl)-2-hydroxy acetamide], the “% Control” value in the test on FLT3(ITD,F691L) (1000 nM) was 100%; in the test on FLT3(ITD) (1000 nM), 34%. Besides, the remaining binding at 1 µM on RIPK2 worked out at 15%; at LTK, 35%; at YSK4, 18%; on TRKB, 22%; on PRKR, 42%; on FLT3(D835Y), 80%. The remaining binding at 1 µM at TRKA came out at 12%.

In the case of `Cc1nc(N)c2c(-c3ccc(NC(=O)[C@H](O)c4cccc(F)c4)cc3C)cn(C)c2n1` [Compound 24], the “% Control” value with FLT3(ITD,F691L) (1000 nM) worked out at 63%; in the test with FLT3(ITD) (1000 nM), 94%. Further, the remaining binding at 1 µM was 100% at RIPK2; 100% on LTK; 100% at YSK4; 96% on TRKB; 42% on PRKR; 96% at FLT3(D835Y). In addition, the remaining binding at 1 µM on TRKA came to 67%.

For the compound `Cc1nc(N)c2c(-c3ccc(NC(=O)[C@H](O)c4cccc(C(F)(F)F)c4)cc3C)cn(C)c2n1` [Compound 26], the “% Control” value in the test with FLT3(ITD,F691L) (100 nM) amounted to 41%; with FLT3(ITD,F691L) (1000 nM) it was 42%; in the test with FLT3(ITD) (100 nM) it was 95%; in the test with FLT3(ITD) (1000 nM) it was 9.4%. The remaining binding at 0.1 µM was found to be 91% on RIPK2 (100 nM); 98% at LTK (100 nM); 95% at YSK4 (100 nM); 92% on TRKB (100 nM); 91% at PRKR (100 nM); 88% on FLT3(D835Y) (100 nM). For the same compound, the remaining binding at 0.1 µM at TRKA (100 nM) amounted to 29%. In addition, the remaining binding at 1 µM came out at 43% on RIPK2; 22% at LTK; 55% on YSK4; 18% on TRKB; 96% on PRKR; 35% at FLT3(D835Y). The remaining binding at 1 µM at TRKA came out at 3.4%.
